± gives the expanded uncertainty stated by the source.
Settings: Liquid; for mass density: 298.15 K; for mass density / molar volume: 101.33 kPa; for molar volume / vapor or sublimation pressure: 313.15 K; for molar volume: Vibrating tube method; for vapor or sublimation pressure: Ebulliometric method (Recirculating still)

Row | Compound | mass density [kg/m3] | molar volume [m3/mol] | vapor or sublimation pressure [kPa]
1 | BrCBr [dibromomethane] | 2478.37 ± 2.3 | 7.1e-05 ± 1e-06 | 13.01 ± 0.15
2 | ClCBr [bromochloromethane] | 1924.88 ± 1.3 | 6.9e-05 ± 1e-06 | 37.28 ± 0.43
3 | ClCCBr [1-bromo-2-chloroethane] | 1727.88 ± 1.9 | 8.4e-05 ± 1e-06 | 8.91 ± 0.1
4 | CCOC(C)=O [ethyl acetate] | 894.97 ± 0.27 | 0.000101 ± 1e-06 | 25.3 ± 0.2
5 | ClCCCl [1,2-dichloroethane] | 1246.59 ± 0.41 | 8.1e-05 ± 1e-06 | 21.05 ± 0.2
